What was measured:
THP-1 cells = assay: Viability of THP-1 cells in co-culture with CD33-specific CAR-T cells (flow cytometry-based cell counting); set-up: species or system human; conditions: 5 μM AR-C
Procedure: FIG. 8. Effects of P2RY2 antagonist on T cells and cancer cells in T cell-cancer cell co-cultures. T cells transduced with CD33-specific CAR (CAR-T) were co-cultured with genetically edited THP-1 cells in the absence or presence of 5 μM AR-C 118925XX (AR-C) for 6-24 hours. Control cells: THP-1 cells transduced with non-targeting sgRNA and Cas9 (gNT); P2RY2 deficient cells: THP-1 cells transduced with P2RY2-targeting sgRNA and Cas9 (gP2RY2-3, gP2RY2-4); B7-H3 (CD276) deficient cells: THP-1 cells transduced with B7-H3-targeting sgRNA and Cas9 (gCD276-1); P2RY2 and B7-H3 double deficient cells: THP-1 cells transduced with P2RY2-targeting sgRNA, B7-H3-targeting sgRNA, and Cas9 (gCD276-1 gP2RY2-3 DKO, gCD276-1 gP2RY2-4 DKO); P2RY2 overexpression cells: THP-1 cells transduced with the open reading frame of P2RY2 (P2RY2-OE); B7-H3 overexpression cells: THP-1 cells transduced with the open reading frame of CD276 (CD276-OE). […]
FIG. 9. […] Control cells THP-1 cells transduced with non-targeting sgRNA and Cas9 (Ctrl.); P2RY2 overexpression cells: THP-1 cells transduced with the open reading frame of P2RY2 (P2RY2-OE). […]
(§1) The open reading frames of transcripts of P2RY2(ENST00000393597.7) or CD276(ENST00000318443.10), were ordered as a codon optimized gBlock Gene Fragment (Integrated DNA Technologies or Twist Bioscience) and cloned into a lentiviral vector containing a blasticidin selection cassette. […]
MART1-specific CD8+ T cells and MART1 epitope-expressing cancer cells were mixed at a ratio of 1:16 to 1:4. […] T cell activation was assessed by surface staining with anti-CD137-BV421 (4-1BB, Biolegend), anti-CD69-APC/Fire™ 750 (FN50, Biolegend), anti-CD25-AF700 (BC96, Biolegend) antibodies and intracellular staining with anti-IL-2-PE/Cy7 (MQ1-17H12, Biolegend), anti-IFN-7-BV421 (4S.B3, Biolegend), anti-TNF-α-BV785 (MAb11, Biolegend) antibodies, followed by flow cytometry analysis. […] The viability of cancer cells that grow in suspension including THP-1 cells was assessed by flow cytometry-based absolute cell counting using AccuCount beads (Spherotech). […]

[1] = test system: CD33-specific CAR transduced T cells co-cultured with THP-1 cells; assay: T cell cytokine production in co-culture of CD33-specific CAR-T cells with THP-1 cells; format: cell-based, human; conditions: 5 μM AR-C
Procedure: FIG. 8. Effects of P2RY2 antagonist on T cells and cancer cells in T cell-cancer cell co-cultures. T cells transduced with CD33-specific CAR (CAR-T) were co-cultured with genetically edited THP-1 cells in the absence or presence of 5 μM AR-C 118925XX (AR-C) for 6-24 hours. Control cells: THP-1 cells transduced with non-targeting sgRNA and Cas9 (gNT); P2RY2 deficient cells: THP-1 cells transduced with P2RY2-targeting sgRNA and Cas9 (gP2RY2-3, gP2RY2-4); B7-H3 (CD276) deficient cells: THP-1 cells transduced with B7-H3-targeting sgRNA and Cas9 (gCD276-1); P2RY2 and B7-H3 double deficient cells: THP-1 cells transduced with P2RY2-targeting sgRNA, B7-H3-targeting sgRNA, and Cas9 (gCD276-1 gP2RY2-3 DKO, gCD276-1 gP2RY2-4 DKO); P2RY2 overexpression cells: THP-1 cells transduced with the open reading frame of P2RY2 (P2RY2-OE); B7-H3 overexpression cells: THP-1 cells transduced with the open reading frame of CD276 (CD276-OE). Transduced cancer cells were selected by antibiotics according to antibiotic resistance genes carried by the lentiviral constructs. Flow cytometry analysis of expression of production of IFNγ and TNFα within the CD3+CD8+ cell population is shown (values indicate the percentages of positive cells). For the viability of THP-1 cells, normalized cell counts of viable cells after co-culture with CD33-specific CAR-T cells is shown. The end-point cell counts were normalized to the number of THP-1 cells in cultures without T cells.
MART-1 specific T cells were generated as described (Mezzadra et al., Nature 549, 106-110 (2017); Jorritsma et al., Blood 110 (10): 3564-3572. (2007)). […]
as §1
MART1-specific CD8+ T cells and MART1 epitope-expressing cancer cells were mixed at a ratio of 1:16 to 1:4. […] T cell activation was assessed by surface staining with anti-CD137-BV421 (4-1BB, Biolegend), anti-CD69-APC/Fire™ 750 (FN50, Biolegend), anti-CD25-AF700 (BC96, Biolegend) antibodies and intracellular staining with anti-IL-2-PE/Cy7 (MQ1-17H12, Biolegend), anti-IFN-7-BV421 (4S.B3, Biolegend), anti-TNF-α-BV785 (MAb11, Biolegend) antibodies, followed by flow cytometry analysis. […] The viability of cancer cells that grow in suspension including THP-1 cells was assessed by flow cytometry-based absolute cell counting using AccuCount beads (Spherotech). For adherent cancer cells including BxPC3 and MCF7, the cell viability was quantified using CellTiter-Blue Cell Viability Assay (Promega).

[2] = 6-24 hours, P2RY2 proficient THP-1 cells, CD3+CD8+ population (FIG. 8)
[3] = P2RY2 deficient THP-1 cells (FIG. 8)

Cc1ccc2c(c1)C=Cc1cc(C)ccc1C2c1cn(Cc2ccc(C(=O)Nc3nn[nH]n3)o2)c(=O)[nH]c1=S [AR-C 118925XX]
viability of P2RY2 proficient THP-1 cells (THP-1 cells; 6-24 hours, co-culture with CD33-specific CAR-T cells (FIG. 8)): reduced | viability of tumor cells upon P2RY2 deletion (THP-1 cells; P2RY2 deficient THP-1 cells, CAR-T cell-THP-1 cell coculture (FIG. 8)): does not influence | production of IFNγ by T cells [1, 2]: increased | production of TNFα by T cells [1, 2]: increased | production of IFNγ in T cell upon P2RY2 deletion [1, 3]: does not influence | production of TNFα in T cell upon P2RY2 deletion [1, 3]: does not influence

Source: patent US20250281610A1, “P2RY2 ACTIVITY MODULATORS” (Deutsches Krebsforschungszentrum Stiftung des öffentlichen …, priority 2022, published 2025)
